Measurements reported in patent US20200093737A1, “PHARMACEUTICAL DOSAGE FORMS CONTAINING TASK-1 AND TASK-3 CHANNEL INHIBITORS, AND THE USE OF SAME IN BREATHING DISORDER THERAPY” (priority 2016, published 2020).
Marks after values point to notes of the source that are not given here.

Tested on: upper airways
Assay: Animal model of obstructive sleep apnoea in the pig (collapsibility of the upper airways under negative pressure)
Type: in vivo, German Landrace pigs
From the text: The effects of the formulations according to the invention of the inhibitors of TASK-1 and/or TASK-3 channels on the activation threshold of the genioglossus muscle by negative pressure and the collapsibility of the upper airways were investigated in a pig model for obstructive sleep apnoea. Using negative pressure, it is possible to induce collapse and thus obstruction of the upper airways in anaesthetized, spontaneously breathing pigs [Wirth et al., Sleep 36, 699-708 (2013)]. German Landrace pigs were used for the model. Since the nasal axis is in an almost vertical position in humans in a horizontal sleeping position, the pigs in the experiments were fixed in a sitting position (70 degrees), wherein the nose pointed upwards. After nasal administration, the formulation therefore flowed downwards over all regions of the upper airways. The pigs were anaesthetized and tracheotomized. One cannula each was inserted into the rostral and the caudal part of the trachea. Using a T connector, the rostral cannula was connected on the one hand to a device generating negative pressure and on the other hand to the caudal cannula. Using a T connector, the caudal cannula was connected to the rostral cannula and to a tube which allowed spontaneous breathing circumventing the upper airways. By appropriate closing and opening of the tubes it was thus possible for the pig to change from normal nasal breathing to breathing via the caudal cannula during the time when the upper airways were isolated and were connected to the device for generating negative pressure. The muscle activity of the Musculus genioglossus was recorded by electromyogram (EMG). At certain points in time, the collapsibility of the upper airways was tested by having the pig breathe via the caudal cannula and applying negative pressures of −50, −100 and −150 mbar (corresponding to −50, −100 and −150 cm water column (cm H2O)) to the upper airways. This caused the upper airways to collapse, which manifested itself in an interruption of the airflow and a pressure drop in the tube system. This test was conducted prior to administration of the test substance and at certain intervals after administration of the test substance. An appropriately effective test substance could prevent this collapse of the airways in the inspiratory phase. After changeover from nasal breathing to breathing via the caudal cannula, it was not possible to measure any EMG activity of the Musculus genioglossus in the anaesthetized pig. As a further test, the negative pressure at which EMG activity restarted was then determined. This threshold value was, if a test substance was effective, shifted to more positive values. The test was likewise conducted prior to the administration of the test substance and at certain intervals after the administration of the test substance. The test substance was administered by the nasal route. The results shown in the tables which follow were conducted with the compounds listed in Table 1 as Example 1, Example 3 and Example 4. Unless stated otherwise, the data were measured at a negative pressure of −100 mbar (corresponding to −100 cm water column (cm H2O)) on the upper airways. The active ingredients listed in Table 1 as Example 1, Example 3 and Example 4 were dissolved in the various formulations listed in Table 2 below and administered in an amount of 0 μg, 3 μg, 10 μg, 30 μg or 100 μg per pig. The active ingredient formulation or the pure vehicle was each administered with a pipette at a volume of 400 μl in each nostril. The duration of action in this pig model is defined as the time [min] in which a collapse of the upper airways was not observed in any animal, as a mean value of the specified number of animals. A duration of action specified as “>” X min signifies that the experiment was terminated at X min and up to this point a collapse of the upper airways was still not observed in any animal.

O=C(C1CCCC1)N1CCN(Cc2c(-c3ccc(Br)cc3)nc3ccccn23)CC1 [Example 1, (4-{[2-(4-bromophenyl)imidazo[1,2-a]pyridin-3-yl]methyl}piperazin-1-yl)(cyclopentyl)methanone]
Duration of action [min], mean value (Formulation 1 (no glycerol), 10 μg per pig nasal, -50 mbar): 150 min | Duration of action [min], mean value (Formulation 1 (no glycerol), 10 μg per pig nasal, -100 mbar): 120 min | Duration of action [min], mean value (Formulation 3 (glycerol 2.5% w/v), 10 μg per pig nasal, -50 mbar): >270 min | Duration of action [min], mean value (Formulation 3 (glycerol 2.5% w/v), 10 μg per pig nasal, -100 mbar): 240 min

COc1cccc(C(=O)N2CCN(Cc3c(-c4ccc(Cl)cc4)nc4ccccn34)CC2)n1 [Example 3, (4-{[2-(4-chlorophenyl)imidazo[1,2-a]pyridin-3-yl]methyl}piperazin-1-yl)(6-methoxypyridin-2-yl)methanone]
Duration of action [min], mean value (Formulation 1 (no glycerol), 30 μg per pig nasal, -100 mbar): 180* min | Duration of action [min], mean value (Formulation 1 (phosphate buffer pH 7/polysorbate 80, no glycerol), 3 μg per pig nasal, -100 mbar): 150 min | Duration of action [min], mean value (Formulation 2 (5% w/v glycerol 85%, 4.25 absolute), 3 μg per pig nasal, -100 mbar): 210 min | Duration of action [min], mean value (Formulation 3 (2.5% w/v glycerol 85%, 2.125 absolute), 3 μg per pig nasal, -100 mbar): 240 min | Duration of action [min], mean value (Formulation 3 (2.5% w/v glycerol 85%, 2.125 absolute), 30 μg per pig nasal, -100 mbar): 390 min | Duration of action [min], mean value (Formulation 4 (1% w/v glycerol 85%, 0.85 absolute), 3 μg per pig nasal, -100 mbar): 150 min | Duration of action [min], mean value (Formulation 5 (2.5% w/v glycerol 85% + 20% w/v PEG400), 3 μg per pig nasal, -100 mbar): 240 min | Duration of action [min], mean value (Formulation 6 (20% w/v propylene glycol, no glycerol), 30 μg per pig nasal, -100 mbar): 180 min | Duration of action [min], mean value (Formulation 7 (1.25% w/v Na-CMC, no glycerol), 3 μg per pig nasal, -100 mbar): 120 min

O=C(c1ccccc1F)N1CCN(Cc2c(-c3ccc(Br)cc3)nc3ccccn23)CC1 [Example 4, (4-{[2-(4-bromophenyl)imidazo[1,2-a]pyridin-3-yl]methyl}piperazin-1-yl)(2-fluorophenyl)methanone]
Duration of action [min], mean value (Formulation 1 (no glycerol), 100 μg per pig nasal, -50 mbar): 180 min | Duration of action [min], mean value (Formulation 1 (no glycerol), 100 μg per pig nasal, -100 mbar): 180 min | Duration of action [min], mean value (Formulation 3 (glycerol 2.5% w/v), 100 μg per pig nasal, -50 mbar): >300 min | Duration of action [min], mean value (Formulation 3 (glycerol 2.5% w/v), 100 μg per pig nasal, -100 mbar): 270 min
